Measurements: PubChem BioAssay (NCI)
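Assay format: 96-well plates, 48-hour exposure. At the GI50, growth is halved. TGI marks complete inhibition of growth.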

What was measured:
Experiment in all cases: inhibition of tumour cell growth, NCI panel, 48 h
786-0 renal = test system: 786-0 renal
A549 NSCLC = test system: A549 NSCLC
ACHN renal = test system: ACHN renal
BT-549 breast = test system: BT-549 breast
CAKI-1 renal = test system: CAKI-1 renal
CCRF-CEM leukemia = test system: CCRF-CEM leukemia
COLO 205 colon = test system: COLO 205 colon
DU-145 prostate = test system: DU-145 prostate
EKVX NSCLC = test system: EKVX NSCLC
HCC-2998 colon = test system: HCC-2998 colon
HCT-116 colon = test system: HCT-116 colon
HCT-15 colon = test system: HCT-15 colon
HL-60(TB) leukemia = test system: HL-60(TB) leukemia
HOP-62 NSCLC = test system: HOP-62 NSCLC
HOP-92 NSCLC = test system: HOP-92 NSCLC
HS 578T breast = test system: HS 578T breast
HT29 colon = test system: HT29 colon
IGROV1 ovarian = test system: IGROV1 ovarian
K-562 leukemia = test system: K-562 leukemia
KM12 colon = test system: KM12 colon
LOX IMVI melanoma = test system: LOX IMVI melanoma
M14 melanoma = test system: M14 melanoma
MALME-3M melanoma = test system: MALME-3M melanoma
MCF7 breast = test system: MCF7 breast
MDA-MB-231 breast = test system: MDA-MB-231 breast
MDA-MB-435 = test system: MDA-MB-435
MOLT-4 leukemia = test system: MOLT-4 leukemia
NCI-H226 lung = test system: NCI-H226 lung
NCI-H23 lung = test system: NCI-H23 lung
NCI-H460 lung = test system: NCI-H460 lung
NCI-H522 lung = test system: NCI-H522 lung
NCI/ADR-RES ovarian = test system: NCI/ADR-RES ovarian
OVCAR-3 ovarian = test system: OVCAR-3 ovarian
OVCAR-4 ovarian = test system: OVCAR-4 ovarian
OVCAR-5 ovarian = test system: OVCAR-5 ovarian
OVCAR-8 ovarian = test system: OVCAR-8 ovarian
PC-3 prostate = test system: PC-3 prostate
RPMI-8226 leukemia = test system: RPMI-8226 leukemia
RXF 393 renal = test system: RXF 393 renal
SF-268 CNS = test system: SF-268 CNS
SF-295 CNS = test system: SF-295 CNS
SF-539 CNS = test system: SF-539 CNS
SK-MEL-2 melanoma = test system: SK-MEL-2 melanoma
SK-MEL-28 melanoma = test system: SK-MEL-28 melanoma
SK-MEL-5 melanoma = test system: SK-MEL-5 melanoma
SK-OV-3 ovarian = test system: SK-OV-3 ovarian
SN12C renal = test system: SN12C renal
SNB-19 CNS = test system: SNB-19 CNS
SR leukemia = test system: SR leukemia
SW-620 colon = test system: SW-620 colon
T-47D breast = test system: T-47D breast
TK-10 renal = test system: TK-10 renal
U251 CNS = test system: U251 CNS
UACC-257 melanoma = test system: UACC-257 melanoma
UACC-62 melanoma = test system: UACC-62 melanoma
UO-31 renal = test system: UO-31 renal

## Cc1cc(C(=O)/C=C/c2ccc[nH]2)ccc1-n1ccc(C(F)(F)F)n1
786-0 renal
  GI50: 3.54 µM
  TGI: > 100 µM
A549 NSCLC
  GI50: 6.82 µM
  TGI: > 100 µM
ACHN renal
  GI50: 21.3 µM
  TGI: > 100 µM
BT-549 breast
  GI50: 1.36 µM
  TGI: 3.12 µM
CAKI-1 renal
  GI50: 3.04 µM
  TGI: 28.7 µM
CCRF-CEM leukemia
  GI50: 2.55 µM
  TGI: > 100 µM
COLO 205 colon
  GI50: 21.8 µM
  TGI: > 100 µM
DU-145 prostate
  GI50: 24.8 µM
  TGI: > 100 µM
EKVX NSCLC
  GI50: 6.15 µM
  TGI: > 100 µM
HCC-2998 colon
  GI50: 20.1 µM
  TGI: > 100 µM
HCT-116 colon
  GI50: 8.63 µM
  TGI: > 100 µM
HCT-15 colon
  GI50: 11.1 µM
  TGI: > 100 µM
HL-60(TB) leukemia
  GI50: 0.457 µM
  TGI: > 100 µM
HOP-62 NSCLC
  GI50: 34.8 µM
  TGI: > 100 µM
HOP-92 NSCLC
  GI50: 11.4 µM
  TGI: > 100 µM
HS 578T breast
  GI50: 11.1 µM
  TGI: > 100 µM
HT29 colon
  GI50: 14.4 µM
  TGI: > 100 µM
IGROV1 ovarian
  GI50: 2.02 µM
  TGI: 4.56 µM
K-562 leukemia
  GI50: 3.43 µM
  TGI: > 100 µM
KM12 colon
  GI50: 1.01 µM
  TGI: > 100 µM
LOX IMVI melanoma
  GI50: 34.8 µM
  TGI: > 100 µM
M14 melanoma
  GI50: 30.7 µM
  TGI: > 100 µM
MALME-3M melanoma
  GI50: 7.25 µM
  TGI: 54.7 µM
MCF7 breast
  GI50: 5.53 µM
  TGI: > 100 µM
MDA-MB-231 breast
  GI50: 27.6 µM
  TGI: > 100 µM
MDA-MB-435
  GI50: 35.5 µM
  TGI: > 100 µM
MOLT-4 leukemia
  GI50: 3.66 µM
  TGI: > 100 µM
NCI-H226 lung
  GI50: 30 µM
  TGI: > 100 µM
NCI-H23 lung
  GI50: 14.9 µM
  TGI: > 100 µM
NCI-H460 lung
  GI50: 24.3 µM
  TGI: > 100 µM
NCI-H522 lung
  GI50: 3.68 µM
  TGI: 65.6 µM
NCI/ADR-RES ovarian
  GI50: 17.1 µM
  TGI: > 100 µM
OVCAR-3 ovarian
  GI50: 2.29 µM
  TGI: 6.78 µM
OVCAR-4 ovarian
  GI50: 3.18 µM
  TGI: > 100 µM
OVCAR-5 ovarian
  GI50: > 100 µM
  TGI: > 100 µM
OVCAR-8 ovarian
  GI50: 6.27 µM
  TGI: > 100 µM
PC-3 prostate
  GI50: 0.472 µM
  TGI: 4.45 µM
RPMI-8226 leukemia
  GI50: 0.592 µM
  TGI: 3.33 µM
RXF 393 renal
  GI50: 1.8 µM
  TGI: 4.74 µM
SF-268 CNS
  GI50: 3.37 µM
  TGI: > 100 µM
SF-295 CNS
  GI50: 7.97 µM
  TGI: > 100 µM
SF-539 CNS
  GI50: 2.69 µM
  TGI: 9.13 µM
SK-MEL-2 melanoma
  GI50: > 100 µM
  TGI: > 100 µM
SK-MEL-28 melanoma
  GI50: 41.8 µM
  TGI: > 100 µM
SK-MEL-5 melanoma
  GI50: 12.1 µM
  TGI: 25.3 µM
SK-OV-3 ovarian
  GI50: 46.8 µM
  TGI: > 100 µM
SN12C renal
  GI50: 6.44 µM
  TGI: > 100 µM
SNB-19 CNS
  GI50: 21.4 µM
  TGI: > 100 µM
SR leukemia
  GI50: 3.72 µM
  TGI: 80.1 µM
SW-620 colon
  GI50: 10.7 µM
  TGI: > 100 µM
T-47D breast
  GI50: 4.78 µM
  TGI: > 100 µM
TK-10 renal
  GI50: 27.5 µM
  TGI: > 100 µM
U251 CNS
  GI50: 3.5 µM
  TGI: > 100 µM
UACC-257 melanoma
  GI50: 21.9 µM
  TGI: > 100 µM
UACC-62 melanoma
  GI50: 21.4 µM
  TGI: > 100 µM
UO-31 renal
  GI50: 1.4 µM
  TGI: 2.72 µM
